The assay addresses E. coli DNA primase (Escherichia coli, UniProt P0ABS5). The experiment in a line: Fluorescence-based E. coli DNA primase HTS assay in the presence of helicase (SYBR Green II). In kind it is biochemical. The conditions noted are these: for inhibition of primase activity: 50 mM salt. The protocol: The reaction was carried out on a Costar 384-well black plate. The reaction volume was 30 μl. The final concentrations in the reaction were 50 mM Tris-HCl, pH 7.5, 10 mM Mg(OAc)2, 10 mM DTT, 25 mM potassium glutamate, 0.003% Brij-35, 200 nM DNA, 25 nM helicase, 75 nM E. coli DNA primase, 200 μM ATP and 200 μM GTP. To perform the HTS assay, 2 μl of compound/DMSO solution or aqueous DMSO solution was incubated with 23 μl of a reaction premix at room temperature for 15 min. The reaction premix was a 1.3× concentrated reaction solution without NTPs. After the incubation, 5 μl of a substrate solution with 1.2 mM ATP and 1.2 mM GTP were added to initiate the reaction. The reaction was incubated at room temperature for 40 min. Then 25 μl of a 30×SYBR Green II solution with 1.2 M NaCl was added and the fluorescence was measured (excitation at 485 nm, emission at 535 nm).
A dideoxy NTP was used as a positive inhibitory control for the primase reaction. […] Since ddATP competes with NTP (ATP in this case) in the primase reaction, the IC50 value was dependent on the substrate (ATP) concentration. Under the HTS conditions used, the IC50 of ddATP was 10 μM

Sequence of E. coli DNA primase (P0ABS5 whole entry): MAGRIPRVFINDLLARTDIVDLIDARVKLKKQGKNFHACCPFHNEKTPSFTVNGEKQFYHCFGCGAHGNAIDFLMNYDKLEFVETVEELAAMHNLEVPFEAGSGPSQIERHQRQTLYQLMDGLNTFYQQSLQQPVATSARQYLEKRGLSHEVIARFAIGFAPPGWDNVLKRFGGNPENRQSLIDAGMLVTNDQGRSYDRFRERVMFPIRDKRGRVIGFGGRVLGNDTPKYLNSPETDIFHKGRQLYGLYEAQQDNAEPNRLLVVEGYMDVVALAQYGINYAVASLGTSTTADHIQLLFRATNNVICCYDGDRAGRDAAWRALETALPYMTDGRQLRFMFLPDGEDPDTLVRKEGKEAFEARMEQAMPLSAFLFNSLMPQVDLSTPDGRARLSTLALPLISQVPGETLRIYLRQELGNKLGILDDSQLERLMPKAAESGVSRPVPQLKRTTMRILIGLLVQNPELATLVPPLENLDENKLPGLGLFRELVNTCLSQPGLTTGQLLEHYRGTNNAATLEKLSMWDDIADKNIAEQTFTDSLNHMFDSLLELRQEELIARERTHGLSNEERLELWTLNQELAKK

As to “5′-CTCTCTCTCTCTCTCTCTCTCTCTCTCTCTCTCTGCAAAGC-3′ [DNA7]”, the Michaelis constant (Km) (DNA template concentration dependence, FIG. 5, read-out: apparent Km for DNA) was 0.105 µM.

With `[Cl-].[K+]` [KCl], the “inhibition of primase activity” value was “approximately 50%”. Take `[Cl-].[Na+]` [NaCl]: the “inhibition of primase activity” value is on record as “approximately 50%”. Turning to `Nc1ncnc2c1ncn2[C@H]1CC[C@@H](COP(=O)(O)OP(=O)(O)OP(=O)(O)O)O1` [ddATP], the concentration for half-maximal inhibition (IC50) (HTS conditions, 200 μM ATP and 200 μM GTP, IC50 dependent on ATP concentration (competes with ATP), read-out: IC50 of inhibition of primase activity) is 10 µM.

Usually Km stands for the concentration of substrate that gives half-maximal velocity. The IC50 is the concentration needed to halve the response being measured.

These data come from US20070092879A1, “Fluoresence-based dna primase assays” (AstraZeneca AB, priority 2003, published 2007).
